Values joined by “and” are separate entries in the source; they are usually repeats but may differ in a detail not shown here. Equal values may be shown once.
Columns and labels:
Felis catus [1] = species: Felis catus; test: The inotropic activity was assayed in vitro in cat papillary muscle; format: functional, Muscle tissue
Felis catus [2] = species: Felis catus; test: Ratio of Chronotropic (C) EC50 to inotropic (I) EC50
Felis catus [3] = species: Felis catus; test: Chronotropic effects were assayed in vitro in the isolated right artium of the cat.; format: functional
Felis catus [4] = species: Felis catus; test: In vitro chronotropic effect in right artium of cat (Inactive); format: functional; further: test concentration or dose not given here
Felis catus [5] = species: Felis catus; test: In vitro inotropic effect in cat papillary muscle (Inactive); format: functional, Muscle tissue
Canis familiaris [6] = species: Canis familiaris; test: (§1) ED20/ED50 ratio (BP/ inotropic) of the compound; format: functional, Canis lupus familiaris
Felis catus [7] = species: Felis catus; test: (§2) Ratio of Chronotropic (C) EC50 to inotropic (I) EC50; format: functional
Canis familiaris [8] = test: Inotropic effect in the dogs with pentobarbtial-induced heart failure, id administration; format: functional; details: Canis lupus familiaris
Canis familiaris [9] = test: (§3) Reduced arterial blood pressure after Id administration in dogs with pentobarbital-induced heart failure; format: functional; details: Canis lupus familiaris
[10] = (§4) Inhibition of bovine cardiac phosphodiesterase fraction III; parameters: species or system Bos taurus
Canis familiaris [11] = test: Inotropic effect in anesthetized dogs; format: functional; details: Canis lupus familiaris
Canis familiaris [12] = test: as §3; format: functional; details: Canis lupus familiaris; remark: listed apart in the source
Canis familiaris [13] = species: Canis familiaris; test: as §1; format: functional, Canis lupus familiaris; remark: listed apart in the source
Canis familiaris [14] = test: Inotropic effect in dogs with pentobarbital-induced heart failure, iv administration; format: functional; details: Canis lupus familiaris
Canis familiaris [15] = test: Inotropic effect in dogs with pentobarbitial-induced heart failure, iv administration; format: functional; details: Canis lupus familiaris
Canis familiaris [16] = test: as §3; format: functional; details: Canis lupus familiaris; remark: listed apart in the source
Canis familiaris [17] = test: Inotropic effect in dogs with pentobarbtial-induced heart failure, iv administration; format: functional; details: Canis lupus familiaris
[18] = (§5) Inhibition of crude bovine cardiac phosphodiesterase; format: functional, Bos taurus
Phosphodiesterase 3B = Phosphodiesterase 3B (Bos taurus, UniProt E1BN64); test: as §4
Chain of Phosphodiesterase 3B (E1BN64 whole entry): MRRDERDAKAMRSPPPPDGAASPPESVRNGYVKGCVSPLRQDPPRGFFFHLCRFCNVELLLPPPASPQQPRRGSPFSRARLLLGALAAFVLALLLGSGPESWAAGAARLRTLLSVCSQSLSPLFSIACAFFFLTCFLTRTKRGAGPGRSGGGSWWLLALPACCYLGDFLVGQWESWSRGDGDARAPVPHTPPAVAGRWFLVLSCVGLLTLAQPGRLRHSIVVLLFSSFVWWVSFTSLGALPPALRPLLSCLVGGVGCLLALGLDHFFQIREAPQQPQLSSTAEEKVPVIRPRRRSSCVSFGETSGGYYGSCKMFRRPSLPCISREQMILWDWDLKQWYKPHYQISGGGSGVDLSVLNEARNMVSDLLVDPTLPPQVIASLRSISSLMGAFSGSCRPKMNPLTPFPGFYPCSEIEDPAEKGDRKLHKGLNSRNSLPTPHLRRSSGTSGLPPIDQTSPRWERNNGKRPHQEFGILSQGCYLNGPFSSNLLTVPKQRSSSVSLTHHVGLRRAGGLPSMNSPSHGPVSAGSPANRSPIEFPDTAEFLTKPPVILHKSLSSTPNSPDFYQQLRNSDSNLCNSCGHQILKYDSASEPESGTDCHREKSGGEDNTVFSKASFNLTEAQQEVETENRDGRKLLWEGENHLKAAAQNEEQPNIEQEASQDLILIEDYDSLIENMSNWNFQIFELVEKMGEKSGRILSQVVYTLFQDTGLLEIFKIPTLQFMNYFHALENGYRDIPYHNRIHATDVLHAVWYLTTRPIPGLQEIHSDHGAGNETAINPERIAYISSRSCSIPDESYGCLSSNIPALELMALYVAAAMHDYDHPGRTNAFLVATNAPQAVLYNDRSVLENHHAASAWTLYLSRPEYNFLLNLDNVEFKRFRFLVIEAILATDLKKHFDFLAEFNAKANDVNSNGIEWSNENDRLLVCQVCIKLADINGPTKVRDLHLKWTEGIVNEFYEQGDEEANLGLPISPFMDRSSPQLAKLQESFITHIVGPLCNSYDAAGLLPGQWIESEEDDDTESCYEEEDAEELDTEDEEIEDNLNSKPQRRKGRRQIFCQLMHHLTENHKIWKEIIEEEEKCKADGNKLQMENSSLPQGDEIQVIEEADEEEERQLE

Felis catus [19] = species: Felis catus; test: In vitro inotropic effect in cat papillary muscle; format: functional
[20] = as §5; parameters: species or system Bos taurus
Canis familiaris [21] = species: Canis familiaris; test: as §2; format: functional, Canis lupus familiaris
Canis familiaris [22] = test: as §3; format: functional; details: Canis lupus familiaris; remark: listed apart in the source
[23] = Felis catus, Muscle tissue, read-out: EC50

| SMILES | EC50 (Felis catus [1]; [23]) | Ratio (Felis catus [2]) | EC50 (Felis catus [3]) | EC50 (Felis catus [4]) | EC50 (Felis catus [5]) | further results |
| --- | --- | --- | --- | --- | --- | --- |
| CSc1ccc(C(=O)c2[nH]c(=O)[nH]c2C)cc1 [ENOXIMONE] | 90 µM | 2.2 | 200 uM l-1 |  |  |  |
| COc1nc(C)nc(NCc2cccnc2)c1C#N |  |  |  | Not Active | Not Active |  |
| Cc1nc(O)c([N+](=O)[O-])c(NCc2cccnc2)n1 | 5.3 µM | >189 | > 1000 uM l-1 |  |  |  |
| Cc1nc(O)c(C#N)c(NCCc2ccncc2)n1 | 6.5 µM | 61 | 396 uM l-1 |  |  |  |
| Cc1nc(O)c(C#N)c(NCc2ccncc2)n1 | 4.4 µM | 57 | 250 uM l-1 |  |  |  |
| CCNc1nc(C)nc(O)c1C(C)=O |  |  |  | Not Active | Not Active |  |
| CCNc1nc(C)nc(O)c1Br | 4.1 µM |  | 420 uM l-1 |  |  | Ratio (Canis familiaris [6]): 1.6; EC50 (Felis catus [1]; read-out: EC50): 2.8 µM; Ratio (Felis catus [7]): 102; ED50 (Canis familiaris [8]): 0.03 mg/kg; ED20 (Canis familiaris [9]): < 0.003 mg/kg; IC50 [10]: 38 µM; ED50 (Canis familiaris [11]): 0.01 mg/kg; ED20 (Canis familiaris [12]): 0.05 mg/kg; Ratio (Canis familiaris [13]): <0.3; ED50 (Canis familiaris [14]): 0.01 mg/kg |
| CCNc1nc(C)nc(O)c1C#N | 2.6 µM | 115 | 300 uM l-1 |  |  | ED50 (Canis familiaris [8]): 0.06 mg/kg; ED20 (Canis familiaris [9]): 0.37 mg/kg; ED50 (Canis familiaris [15]): 0.027 mg/kg; Ratio (Canis familiaris [13]): 1.4 and 1.2; ED20 (Canis familiaris [16]): 0.07 mg/kg |
| Cc1nc(S)c(C#N)c(NCc2cccnc2)n1 | 14 µM | 6 |  |  |  | EC50 (Felis catus [3]; Felis catus, read-out: EC50): 80 µM |
| Cc1nc(O)c(Cl)c(NCCc2ccccc2)n1 | 1.2 µM | >833 | > 1000 uM l-1 |  |  |  |
| Cc1nc(O)c(C#N)c(NCCc2ccccn2)n1 | 37 µM | 2 |  |  |  | EC50 (Felis catus [3]; Felis catus, read-out: EC50): 71 µM |
| N#Cc1c(O)nc(O)nc1NCc1cccnc1 |  |  |  | Not Active | Not Active |  |
| Cc1nc(O)c(C#N)c(NCc2ccccn2)n1 | 43 µM | 4 | 180 uM l-1 |  |  |  |
| Cc1nc(O)c(C#N)c(NCCc2ccccc2)n1 | 20 µM | >50 | > 1000 uM l-1 |  |  | ED50 (Canis familiaris [8]): 0.22 mg/kg; ED20 (Canis familiaris [9]): 0.027 mg/kg; ED50 (Canis familiaris [15]): 0.07 mg/kg; ED20 (Canis familiaris [16]): 0.3 mg/kg |
| Cc1nc(O)c(C#N)c(NCCc2cccnc2)n1 |  | 1.3 | 300 uM l-1 |  |  | EC50 (Felis catus [1]): 230 uM l-1 |
| Cc1nc(O)c(Br)c(NCCc2ccccc2)n1 | 6.1 µM | >164 | > 1000 uM l-1 |  |  | ED50 (Canis familiaris [17]): 0.029 mg/kg; ED50 (Canis familiaris [8]): > 1 mg/kg; ED20 (Canis familiaris [9]): < 0.01 mg/kg; ED20 (Canis familiaris [16]): > 1 mg/kg |
| CNc1nc(C)nc(NCc2cccnc2)c1C#N |  |  |  | Not Active | Not Active |  |

| SMILES | EC50 (Felis catus [1]; [23]) | Ratio (Felis catus [2]) | EC50 (Felis catus [3]) | EC50 (Felis catus [4]) | EC50 (Felis catus [5]) | further results |
| --- | --- | --- | --- | --- | --- | --- |
| O=C1CCC(c2ccc(-n3ccnc3)cc2)=NN1 [IMAZODAN] | 7 µM |  |  |  |  | IC50 [18]: 145 µM; IC50 (Phosphodiesterase 3B): 94 µM; ED50 (Canis familiaris [11]): 0.08 mg/kg |
| N#Cc1c(O)nc(-c2ccccc2)nc1NCc1cccnc1 |  |  |  | Not Active | Not Active |  |
| Cc1[nH]c(=O)c(C#N)cc1-c1ccncc1 [MILRINONE] | 7.7 µM |  | ~ 300 uM l-1 |  |  | Ratio (Canis familiaris [6]): 2.5; Ratio (Felis catus [7]): ~39; ED50 (Canis familiaris [8]): 0.04 mg/kg; ED20 (Canis familiaris [9]): 0.048 mg/kg; EC50 (Felis catus [19]): 6.5 µM; IC50 [10]: 28 µM; ED50 (Canis familiaris [11]): 0.02 mg/kg; IC50 [20]: 192 µM; Ratio (Canis familiaris [13]): 3; ED20 (Canis familiaris [16]): 0.1 mg/kg; ED50 (Canis familiaris [14]): 0.016 mg/kg |
| CSc1nc(C)nc(NCc2cccnc2)c1C#N |  |  |  | Not Active | Not Active |  |
| CCc1nc(O)c(C#N)c(NCc2cccnc2)n1 | 5.5 µM | 16 |  |  |  | EC50 (Felis catus [3]; Felis catus, read-out: EC50): 86 µM |
| Cc1nc(Cl)c(C#N)c(NCc2cccnc2)n1 |  |  |  | Not Active | Not Active |  |
| Cc1nc(=O)c(C#N)c(NCc2cccnc2)[nH]1 [PELRINONE] | 5.9 µM |  | 212 uM l-1 |  |  | ED50 (Canis familiaris [8]): 0.2 mg/kg; ED20 (Canis familiaris [9]): 0.12 mg/kg; EC50 (Felis catus [19]): 5 µM; IC50 [10]: 36 µM; ED50 (Canis familiaris [15]): 0.033 mg/kg; Ratio (Canis familiaris [21]): 36; ED50 (Canis familiaris [11]): 0.03 mg/kg; ED20 (Canis familiaris [22]): > 3 mg/kg; IC50 [20]: 76 µM |
| CC(=O)c1c(O)nc(C)nc1NCc1cccnc1 |  |  |  | Not Active | Not Active |  |
| Cc1nc(O)c(C(N)=O)c(NCc2cccnc2)n1 |  |  |  | Not Active | Not Active |  |
| Cc1nc(O)c(C#N)c(NCc2ccco2)n1 | 10 µM | 8.8 |  |  |  | EC50 (Felis catus [3]; Felis catus, read-out: EC50): 88 µM |
| CCCNc1nc(C)nc(O)c1C#N | 1.9 µM | 9 |  |  |  | EC50 (Felis catus [3]; Felis catus, read-out: EC50): 17 µM |
| N#Cc1c(O)nc(Cc2ccccc2)nc1NCc1cccnc1 | 72 µM | 14 | ~ 1000 uM l-1 |  |  |  |
| CC(C)(C)c1nc(O)c(C#N)c(NCc2cccnc2)n1 | 55 µM | 2 | 110 uM l-1 |  |  |  |
| CCNc1nc(C)nc(O)c1[N+](=O)[O-] | 25 µM | 9 | 230 uM l-1 |  |  |  |
| N#Cc1c(O)ncnc1NCc1cccnc1 |  |  |  | Not Active | Not Active |  |
| Cc1nc(O)c(Br)c(NCc2cccnc2)n1 | 3.9 µM |  | 380 uM l-1 |  |  | Ratio (Canis familiaris [6]): 2.3 and 4.5; Ratio (Felis catus [7]): 97; ED50 (Canis familiaris [8]): 0.022 mg/kg; ED20 (Canis familiaris [9]): 0.041 mg/kg; EC50 (Felis catus [19]): 2.5 µM; IC50 [10]: 15 µM; ED50 (Canis familiaris [11]): 0.012 mg/kg; IC50 [20]: 35 µM; ED20 (Canis familiaris [16]): 0.1 mg/kg; ED50 (Canis familiaris [14]): 0.018 mg/kg |

— ChEMBL document CHEMBL1124087, “Chemistry and positive inotropic effect of pelrinone and related derivatives. A novel class of 2-methylpyrimidones as inotropic agents” (J Med Chem, 1988)
